Several values for one entry are separate records, joined by “and”; a condition that tells them apart may be missing. Equal values may be shown once. Read-outs that look alike come from different tables or passages of the source.
Legend:
[1] = cited from earlier work
[2] = system: GABAA receptors (benzodiazepine binding site); experiment: PET with [11C]flumazenil (HRRT): GABAA receptor occupancy; type: in vivo, human; settings: for Occupancy (%) OC: occipital cortex; for Occupancy (%) OC / Occupancy (%) AMG / Occupancy (%) CER / Occupancy (%) PUT: 1 h after drug administration; for Occupancy (%) AMG: amygdala; for Occupancy (%) CER: cerebellum; for Occupancy (%) PUT: putamen
Procedure: Two separate open-label phase I PET studies were conducted in 2008–2009.
The initial study design included two sequential panels, with two subjects in each. The first panel was intended to obtain initial receptor occupancy values, to be used for dose selection in the second panel. […] The studies followed an adaptive design, i.e., doses and PET measurements were adjusted depending on the results of preceding measurements. […] To optimize quantification of the relationship between AZ6280 exposure and receptor occupancy, the number of subjects with the highest 40 mg dose was increased (Fig. 1).
The head of the subject was fixed using individual plaster helmet. A sterile physiological phosphate buffer (pH 7.4) solution containing [^11C]flumazenil was injected intravenously as a bolus during 2 s, immediately followed by flush with 10 ml saline. The injected radioactivity for [^11C]flumazenil was in the range of 330–350 MBq, (340 (9) MBq, mean, SD) in the study 1 and in the range of 317–363 MBq (335 (16) MBq) in the study 2. The specific radioactivity of the radioligand at time of injection ranged from 310 to 1465 GBq/μmol (730 (414) GBq/μmol, mean, SD) and from 464 to 1879 GBq/μmol (977 (424) GBq/μmol, mean, SD), for study 1 and study 2, respectively.
PET examinations were performed over 63 min (HRRT; Siemens/CTI). List mode data were reconstructed using the ordinary Poisson 3D ordered subset estimation maximization algorithm, with 10 iterations and 16 subsets including modeling of the point spread function (Varrone et al. [2009]) into a 4D PET image containing 33 consecutive time frames (9 × 10 s, 2 × 15 s, 3 × 20 s, 4 × 30 s, 4 × 60 s, 4 × 180 s, 7 × 360 s) with a 3D array of 256 × 256 × 207 voxels having a size of 1.22 × 1.22 × 1.22 mm.
The anatomical brain regions were delineated manually on the MR images using in-house image analysis software. The regions included cortical and striatal subregions, thalamus, cerebellum, limbic regions, pons, and whole brain. The following four regions were selected in the final analysis: The occipital cortex and cerebellum were chosen because of the highest GABAA receptor binding by [^11C]flumazenil and good imaging statistics and preferential distribution of α1/α2 receptor subtypes; the amygdala was chosen because of its role in the brain circuits involved in anxiety and putamen for preferential α1/α2/α3 versus α5 receptor subtypes (Lingford-Hughes et al. [2002]; Fatemi et al. [2013]; Waldvogel and Faull [2015]). For the pons, the ROI was drawn on horizontal projection on the six central slices. […] The concentration of radioactivity in each ROI, calculated for each sequential time frame and corrected for ^11C decay, was plotted versus time (TACs).
An index of neuronal GABAA receptor density or binding potential (BPND) was calculated using the simplified reference tissue model (Lammertsma and Hume [1996]) and pons as a reference region. The calculated receptor occupancy (%) was then correlated to drug exposure according to the following equation:1 Occupancy=Occmax×Cav,PET/Ki,plasma+Cav,PET
where Occmax is the maximal occupancy induced by drug, C av,PET is the total drug plasma concentration, and K i,plasma is the inhibition constant corresponding to the drug plasma concentration required for half-maximum receptor occupancy. Non-linear least squares curve fitting of the relationship between drug plasma concentration and receptor occupancy was performed using Matlab R2007b (http://de.mathworks.com). Regional data were fitted simultaneously to obtain a single estimate of K i,plasma and regionally different estimates of Occmax. Best fit estimate and confidence interval (95% CI) were obtained on the logarithmic scale.

[3] = Safety and tolerability in the PET studies; type: in vivo, human
Text: Safety and tolerability assessments included records of adverse events, vital signs (blood pressure, heart rate), Allen’s test, ECG, clinical chemistry, hematology assessments, and urinalysis.

[4] = system: approximately 160 different ligand binding assays; experiment: Battery of approximately 160 different ligand binding assays at 10 μM; settings: active = ≥50% inhibition with an IC50 <1µM
[5] = target: human MT1 receptor (Homo sapiens, UniProt P48039); experiment: MT1 receptor GTPγS studies; type: biochemical
Sequence of human MT1 receptor (P48039 whole entry): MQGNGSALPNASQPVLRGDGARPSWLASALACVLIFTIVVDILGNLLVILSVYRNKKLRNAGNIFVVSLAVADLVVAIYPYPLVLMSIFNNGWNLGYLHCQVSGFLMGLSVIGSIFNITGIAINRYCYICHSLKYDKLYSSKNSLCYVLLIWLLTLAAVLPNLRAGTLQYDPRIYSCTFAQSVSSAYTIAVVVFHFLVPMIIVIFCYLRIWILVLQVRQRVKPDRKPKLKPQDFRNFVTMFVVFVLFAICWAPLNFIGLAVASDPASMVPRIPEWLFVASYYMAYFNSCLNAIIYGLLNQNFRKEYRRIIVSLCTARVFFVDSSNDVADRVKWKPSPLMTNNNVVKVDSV

[6] = Brain exposure in animals; type: in vivo
[7] = Plasma pharmacokinetics after single oral doses in the PET studies; type: in vivo, human; settings: for C av,PET: average plasma concentration at time of PET
Procedure: Venous blood samples for determination of drug plasma concentrations were collected at approximately 15 min before [^11C]flumazenil injection and at 15 and 30 min and 3, 4, 6, 8, 10, 12, 16, 24, 36, and 48 h after drug administration, including three samples during PET measurement, at 1, 1.30, and 2 h after drug administration.
Calculations of the pharmacokinetic parameters included the maximum plasma concentration (C max), the time to the maximum plasma concentration (T max), and the average drug plasma concentration during the PET measurement (C av,PET) (division of the partial area corresponding to the start and end times of PET assessment, AUCPET, by the duration of the PET measurement). The pharmacokinetic calculations were performed using non-compartmental analysis using WinNonlin™, Pharsight Corporation.

[8] = parameters: method as in Chen et al. 2014, 2015; settings: neurophysiological test battery; ref Chen et al. 2014, 2015; cited from earlier work
[9] = AZD6280 5 to 40 mg single oral doses

CCCNC(=O)c1nnc2c(-c3cc(OC)ccc3OC)cccc2c1N [AZD6280]
sedation scores in VAS alertness scale compared to placebo ([1]; 1 h post-dose, dose ≥20 mg, ref AZ data on file): numerically higher sedation scores
correct answers on DSST ([1]; 2 h after administration, dose ≥20 mg, ref AZ data on file): lower mean correct answers
relationship between dose and alertness or cognitive performance ([1]; VAS alertness-sedation, Modified Wilson Sedation Scale, DSST, ref NCT00681317 and NCT00681915): no significant relationship
receptor occupancy at the maximum tolerated dose ([2]; 40 mg AZD6280, cortex and cerebellum): over 60%
Occupancy (%) OC ([2]; AZD6280 single oral dose 5 mg): 11% and 7%
Occupancy (%) AMG ([2]; AZD6280 single oral dose 12 mg): −8%
Occupancy (%) CER ([2]; AZD6280 single oral dose 12 mg): 25%
Occupancy (%) OC ([2]; AZD6280 single oral dose 12 mg): 17%
Occupancy (%) PUT ([2]; AZD6280 single oral dose 12 mg): 0%
Occupancy (%) AMG ([2]; AZD6280 single oral dose 20 mg): 20%
Occupancy (%) CER ([2]; AZD6280 single oral dose 20 mg): 65%
Occupancy (%) OC ([2]; AZD6280 single oral dose 20 mg): 60%
Occupancy (%) PUT ([2]; AZD6280 single oral dose 20 mg): 32%
Occupancy (%) AMG ([2]; AZD6280 single oral dose 30 mg): 9% and 5%
Occupancy (%) CER ([2]; AZD6280 single oral dose 30 mg): 50% and 59%
Occupancy (%) OC ([2]; AZD6280 single oral dose 30 mg): 39% and 43%
Occupancy (%) PUT ([2]; AZD6280 single oral dose 30 mg): 16% and 14%
Occupancy (%) CER ([2]; AZD6280 single oral dose 40 mg): 69% and 61% and 62% and 60%
Occupancy (%) OC ([2]; AZD6280 single oral dose 40 mg): 50% and 52% and 62% and 53% and 36%
Receptor occupancy (RO) ([2]; at 40mg, MTD, present study): 60-70%
Ki ([2]; read-out: K i,plasma (plasma concentration required for 50% receptor occupancy), hyperbolic fit of occupancy vs C av,PET, regional data fitted simultaneously): 440 nM
most common AEs: dizziness [3, 9]: four of eight subjects
most common AEs: feeling drunk [3, 9]: two out of eight subjects
receptor occupancy at the doses/exposure at which adverse events were reported ([3]; AZD7325 5, 20 and 30 mg, AZD6280 20 mg and above): > 60%
high receptor occupancy reached without obvious sedative effects ([3]; PET studies): > 60%
doses at which AEs were reported ([3]; not at 5 and 12 mg dose): ≥ 20 mg
activity in the battery of ligand binding assays [4]: only assays in which either compound was active were the melatonin Type 1 and Type 2 receptors
EC50 [5]: 19 nM
Emax [5]: 90%
brain exposure [6]: good brain exposure
T max ([7]; AZD6280 single oral dose 5 mg, individual subjects): 108 min
Cmax ([7]; AZD6280 single oral dose 5 mg, individual subjects, read-out: C max): 179 nM and 77.2 nM
C av,PET ([7]; AZD6280 single oral dose 12 mg): 204.68 nM
C av,PET ([7]; AZD6280 single oral dose 20 mg): 592.22 nM
C av,PET ([7]; AZD6280 single oral dose 30 mg): 513.07 nM and 676.82 nM
T max ([7]; AZD6280 single oral dose 30 mg, individual subjects): 30 min
Cmax ([7]; AZD6280 single oral dose 30 mg, individual subjects, read-out: C max): 731 nM
T max ([7]; AZD6280 single oral dose 40 mg, individual subjects): 30 min and 36 min
Cmax ([7]; AZD6280 single oral dose 40 mg, individual subjects, read-out: C max): 1250 nM and 1500 nM and 439 nM and 1510 nM
Cmax ([7]; human, plasma, oral, range over all doses and subjects, read-out: range for peak exposures, Cmax): 28.3 to 555 ng/mL
Tmax ([7]; human, plasma, po, 5 mg, AZD6280 single oral dose 5 mg, individual subjects): 60 min
Tmax ([7]; human, plasma, po, 12 mg, AZD6280 single oral dose 12 mg, individual subject): 54 min
Cmax ([7]; human, plasma, po, 12 mg, AZD6280 single oral dose 12 mg, individual subject, read-out: C max): 249 nM
Tmax ([7]; human, plasma, po, 20 mg, AZD6280 single oral dose 20 mg, individual subject): 96 min
Cmax ([7]; human, plasma, po, 20 mg, AZD6280 single oral dose 20 mg, individual subject, read-out: C max): 677 nM
Cmax ([7]; human, plasma, po, 30 mg, AZD6280 single oral dose 30 mg, individual subjects, read-out: C max): 729 nM
receptor occupancy up to which no cognitive or hypnotic side effects were observed [8]: up to 60%
